Experimental data reported in patent US20230416256A1, “SMALL MOLECULE INHIBITORS OF NF-kB INDUCING KINASE” (Janssen Pharmaceutica NV, priority 2020, published 2023).
Read-outs that look alike come from different tables or passages of the source.

Columns and labels:
[1] = system: p-IKKα levels in L363 (NIK translocated multiple myeloma) cells; experiment: Effect of compounds on p-IKKα levels in L363 cells (AlphaLISA SureFire Ultra); format: cell-based, human; conditions: 10 μM MG132, 6 h, average of values obtained, read-out: Assay 2 IC50
Description: Effect of Compounds on p-IKKα Levels in L363 (NIK Translocated Multiple Myeloma) Cells
All compounds tested were dissolved and serially diluted in DMSO, 1:3 dilution for 11 points in an Echo compatible plate. 100% DMSO was added to columns 12 and 24 of the plate to serve as high and low signal controls. This compound plate was used to spot 20 nL of compound or DMSO into a Greiner 384 well TC plate (781080). The final DMSO concentration was 0.3% (v/v) in cell assays. Human L363 cells (ATCC) were cultured in RPMI1640 medium supplemented with GlutaMax, non-essential amino acids, sodium pyruvate and 10% fetal bovine serum. Cells were routinely maintained at densities of […]-2×10^6 cells per mL at 37° C. in a humidified 5% CO2 atmosphere incubator. Cells were passaged twice a week splitting back to obtain the low density. The day before the assay, cells were washed twice in HBSS (Hank's Balanced Salt Solution), resuspended in Dulbecco's Modified Eagle Medium (DMEM)+0.5% IgG and protease free BSA (Jackson Immuno Research Laboratories), +/−250 ng/ml recombinant human B-cell activating factor (BAFF/BLyS/TNFSF13B) and incubated overnight at 37° C. in a humidified 5% CO2 atmosphere (bulk stimulation with or without BAFF). The next day, the cell concentration was adjusted to 1×10^7 cells/ml in DMEM+/−250 ng/ml BAFF+/10 μM MG132 and plated at […] into compound or DMSO spotted 384 well TC plates. Seeded cells were incubated at 37° C. in a humidified 5% CO2 atmosphere for 6 h. After 6 h, the plates were removed from the incubator and cell lysis was achieved by the addition of 2.5 μl 5×lysis buffer containing protease and phosphatase inhibitors, followed by shaking on a plate shaker at room temperature for 15 min. At the end of this incubation, lysed cells were sequentially treated and incubated with acceptor and donor bead mixes according to the manufacturer's protocol for a 1 plate/2-incubation suspension cell assay (AlphaLISA SureFire Ultra p-IKKa (Ser 176/180) Assay Kit (Perkin Elmer). Plates were read using an EnVision Multilabel Plate Reader (Perkin Elmer). Within an experiment, a concentration response curve for each compound was run in duplicate. The signal obtained in the test wells was normalized using high signal (BAFF stimulated cells, DMSO, MG132) and low signal (unstimulated cells, DMSO) controls. To determine the IC50, a sigmoidal curve was fitted to the plot of % inhibition versus Log10 compound concentration.

[2] = target: recombinant human NF-kappaB-inducing kinase (NIK/MAP3K14) (Homo sapiens, UniProt Q99558); experiment: Inhibition of auto-phosphorylation of recombinant human NIK/MAP3K14 activity (AlphaScreen); format: biochemical; conditions: GST-tagged NIK/MAP3K14 1 nM, 5 μM ATP, 2 h at 25° C.; average of values obtained
Description: Inhibition of Auto-Phosphorylation of Recombinant Human NF-kappaB-Inducing Kinase (NIK/MAP3K14) Activity (AlphaScreen®)
NIK/MAP3K14 auto-phosphorylation activity was measured using the AlphaScreen® (αscreen) format (Perkin Elmer). All compounds tested were dissolved in dimethyl sulfoxide (DMSO) and further dilutions were made in assay buffer. The final DMSO concentration was 0.7% (v/v) in assays. The assay buffer was 50 mM Tris pH 7.5 containing 1 mM EGTA (ethylene glycol tetraacetic acid), 1 mM DTT (dithiothreitol), 0.1 mM Na3VO4, 5 mM MgCl2, and 0.01% Tween® 20. The assays were carried out in 384 well Proxiplates (Perkin Elmer). The incubations consisted of the compound, 5 μM Adenosine-5′-triphosphate (ATP), and 1 nM NIK/MAP3K14. Incubations were initiated by the addition of GST-tagged NIK/MAP3K14 enzyme, carried out for 2 h at 25° C. and terminated by addition of stop buffer containing anti-phospho-IKK Ser176/180 antibody. Protein A Acceptor and Glutathione-Donor beads were added before reading using an EnVision Multilabel Plate Reader (Perkin Elmer). The signal obtained in the wells was normalized using high (full enzyme activity, 0.7% DMSO) and low controls (no enzyme activity, 0.7% DMSO, no ATP). IC50's were determined by fitting a sigmoidal curve to % inhibition of control versus Log10 compound concentration.

[3] = Homo sapiens, L-363, 6 h, 250 ng/ml BAFF stimulated
[4] = Homo sapiens, L-363, 250 ng/ml BAFF stimulated

recombinant human NF-kappaB-inducing kinase (NIK/MAP3K14), sequence (Q99558 whole entry): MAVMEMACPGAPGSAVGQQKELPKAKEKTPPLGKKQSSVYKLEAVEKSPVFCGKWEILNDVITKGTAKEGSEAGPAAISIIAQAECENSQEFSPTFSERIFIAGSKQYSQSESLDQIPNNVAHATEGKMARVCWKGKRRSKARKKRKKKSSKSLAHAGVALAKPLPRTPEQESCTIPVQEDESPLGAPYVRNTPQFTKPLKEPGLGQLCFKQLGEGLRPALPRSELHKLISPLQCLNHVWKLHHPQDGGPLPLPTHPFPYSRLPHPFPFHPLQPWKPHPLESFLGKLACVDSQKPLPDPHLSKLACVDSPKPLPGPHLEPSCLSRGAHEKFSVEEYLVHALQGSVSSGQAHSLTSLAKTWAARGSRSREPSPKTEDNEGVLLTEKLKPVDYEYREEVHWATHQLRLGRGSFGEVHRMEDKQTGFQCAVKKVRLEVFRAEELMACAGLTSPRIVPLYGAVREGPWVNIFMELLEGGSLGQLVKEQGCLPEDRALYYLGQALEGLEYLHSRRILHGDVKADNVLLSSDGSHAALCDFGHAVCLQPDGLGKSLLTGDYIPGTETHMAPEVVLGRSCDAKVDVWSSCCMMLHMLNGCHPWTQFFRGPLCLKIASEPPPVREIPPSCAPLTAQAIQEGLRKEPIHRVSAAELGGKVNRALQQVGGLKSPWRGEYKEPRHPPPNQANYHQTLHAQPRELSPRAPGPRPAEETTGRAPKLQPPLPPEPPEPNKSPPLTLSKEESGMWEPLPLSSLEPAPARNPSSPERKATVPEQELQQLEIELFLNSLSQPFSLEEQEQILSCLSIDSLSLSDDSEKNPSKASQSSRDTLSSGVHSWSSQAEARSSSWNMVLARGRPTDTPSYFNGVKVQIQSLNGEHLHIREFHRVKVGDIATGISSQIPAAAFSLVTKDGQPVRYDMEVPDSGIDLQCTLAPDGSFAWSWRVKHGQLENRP

| Compound | IC50 [1, 3] | IC50 [2] | IC50 [1, 4] | IC50 ([1]; 250 ng/ml BAFF stimulated) |
| --- | --- | --- | --- | --- |
| C[C@]1(O)C[C@](O)(c2cccc(-c3csc(-c4c[nH]c5ncccc45)n3)c2)c2ncccc21 (single isomer, unassigned) [Example 105] | > 0.5 µM | > 0.5 µM |  |  |
| C[C@@]1(O)C[C@](O)(c2cccc(-c3csc(-c4c[nH]c5ncccc45)n3)c2)c2ncccc21 (single isomer, unassigned) [Example 107] | > 0.5 µM | > 0.5 µM |  |  |
| C[C@]1(O)C[C@@](O)(c2cccc(-c3csc(-c4c[nH]c5ncccc45)n3)c2)c2ncccc21 (single isomer, unassigned) [Example 108] | > 0.5 µM | 0.1 to 0.5 µM |  |  |
| CN1CC[C@@](O)(c2cccc(-n3ncc(-c4c[nH]c5ncccc45)n3)c2)C1=O (single isomer, unassigned) [Example 109] |  | ≤ 0.1 µM | > 0.5 µM |  |
| CN1CC[C@@](O)(c2cccc(-c3csc(-n4ccc5ncccc54)n3)c2)C1=O (single isomer, unassigned) [Example 111] |  | 0.1 to 0.5 µM | > 0.5 µM |  |
| CN1CC[C@@](O)(c2cccc(-n3cnc(-c4c[nH]c5ncccc45)n3)c2)C1=O (single isomer, unassigned) [Example 121] |  | ≤ 0.1 µM | > 0.5 µM |  |
| CN1CC[C@@](O)(c2cccc(-n3ccc(-c4c[nH]c5ncccc45)n3)c2)C1=O (single isomer, unassigned) [Example 122] |  | ≤ 0.1 µM | > 0.5 µM |  |
| CN1CC[C@@](O)(c2cccc(-n3cnc(-c4c[nH]c5ncccc45)c3)c2)C1=O (single isomer, unassigned) [Example 124] |  | > 0.5 µM | > 0.5 µM |  |
| Cc1noc2c1CC[C@@]2(O)c1cccc(-c2csc(-c3c[nH]c4ncccc34)n2)c1 (single isomer, unassigned) [Example 126] | > 0.5 µM | ≤ 0.1 µM |  |  |
| Cc1cnc2[nH]cc(-c3nc(-c4cccc([C@]5(O)CCN(C)C5=O)c4)cs3)c2c1 [Example 7, (R)-3-Hydroxy-1-methyl-3-(3-(2-(5-methyl-1H-pyrrolo[2,3-b]pyridin-3-yl)thiazol-4-yl)phenyl)pyrrolidin-2-one] |  | ≤ 0.1 µM | 0.1 to 0.5 µM |  |
| CN1CC[C@@](O)(c2cccc(-c3nc(-c4c[nH]c5ncccc45)cs3)c2)C1=O [Example 8, (R)-3-(3-(4-(1H-Pyrrolo[2,3-b]pyridin-3-yl)thiazol-2-yl)phenyl)-3-hydroxy-1-methylpyrrolidin-2-one] |  | ≤ 0.1 µM | > 0.5 µM |  |
| CN1CC[C@@](O)(c2cccc(-c3ncc(-c4c[nH]c5ncccc45)s3)c2)C1=O [Example 9, (R)-3-(3-(5-(1H-Pyrrolo[2,3-b]pyridin-3-yl)thiazol-2-yl)phenyl)-3-hydroxy-1-methylpyrrolidin-2-one] |  | 0.1 to 0.5 µM | > 0.5 µM |  |
| O[C@@]1(c2cccc(-c3csc(-c4c[nH]c5ncccc45)n3)c2)CCn2ccnc21 [Example 10, (R)-7-(3-(2-(1H-Pyrrolo[2,3-b]pyridin-3-yl)thiazol-4-yl)phenyl)-6,7-dihydro-5H-pyrrolo[1,2-a]imidazol-7-ol] | ≤ 0.1 µM | ≤ 0.1 µM |  |  |
| O[C@@]1(c2cccc(-c3nc(-c4c[nH]c5nccnc45)cs3)c2)CCn2ccnc21 [Example 11, (R)-7-(3-(4-(5H-Pyrrolo[2,3-b]pyrazin-7-yl)thiazol-2-yl)phenyl)-6,7-dihydro-5H-pyrrolo[1,2-a]imidazol-7-ol] | ≤ 0.1 µM | ≤ 0.1 µM |  |  |
| O[C@]1(c2cccc(-c3nc(-c4c[nH]c5nccnc45)cs3)c2)CCn2ccnc21 [Example 12, (S)-7-(3-(4-(5H-Pyrrolo[2,3-b]pyrazin-7-yl)thiazol-2-yl)phenyl)-6,7-dihydro-5H-pyrrolo[1,2-a]imidazol-7-ol] | > 0.5 µM | 0.1 to 0.5 µM |  |  |
| O[C@@]1(c2cccc(-c3csc(-c4c[nH]c5nccnc45)n3)c2)C=Cn2ccnc21 [Example 13, (R)-7-(3-(2-(5H-Pyrrolo[2,3-b]pyrazin-7-yl)thiazol-4-yl)phenyl)-7H-pyrrolo[1,2-a]imidazol-7-ol] | > 0.5 µM | ≤ 0.1 µM |  |  |
| O[C@]1(c2cccc(-c3csc(-c4c[nH]c5nccnc45)n3)c2)C=Cn2ccnc21 [Example 14, (S)-7-(3-(2-(5H-Pyrrolo[2,3-b]pyrazin-7-yl)thiazol-4-yl)phenyl)-7H-pyrrolo[1,2-a]imidazol-7-ol] | > 0.5 µM | > 0.5 µM |  |  |
| O[C@@]1(c2cccc(-c3nc(-c4c[nH]c5ncccc45)cs3)c2)CCn2ccnc21 [Example 15, (R)-7-(3-(4-(1H-Pyrrolo[2,3-b]pyridin-3-yl)thiazol-2-yl)phenyl)-6,7-dihydro-5H-pyrrolo[1,2-a]imidazol-7-ol] | 0.1 to 0.5 µM | ≤ 0.1 µM |  |  |
| O[C@@]1(c2cccc(-c3csc(-c4c[nH]c5ncccc45)n3)c2)COc2cccnc21 [Example 16, (R)-3-(3-(2-(1H-Pyrrolo[2,3-b]pyridin-3-yl)thiazol-4-yl)phenyl)-2,3-dihydrofuro[3,2-b]pyridin-3-ol] |  | ≤ 0.1 µM |  | 0.1 to 0.5 µM |
| O[C@@]1(c2cccc(-c3csc(-c4c[nH]c5nccnc45)n3)c2)COc2cccnc21 [Example 17, (R)-3-(3-(2-(5H-Pyrrolo[2,3-b]pyrazin-7-yl)thiazol-4-yl)phenyl)-2,3-dihydrofuro[3,2-b]pyridin-3-ol] |  | ≤ 0.1 µM |  | ≤ 0.1 µM |
| [2H]c1[nH]c2nccnc2c1-c1nc(-c2cccc([C@@]3(O)CCn4ccnc43)c2)cs1 [Example 18, (S)-7-(3-(2-(5H-Pyrrolo[2,3-b]pyrazin-7-yl-6-d)thiazol-4-yl)phenyl)-6,7-dihydro-5H-pyrrolo[1,2-a]imidazol-7-ol] | > 0.5 µM | > 0.5 µM |  |  |
| [2H]c1cnc2[nH]cc(-c3nc(-c4cccc([C@@]5(O)CCn6ccnc65)c4)cs3)c2n1 [Example 19, (S)-7-(3-(2-(5H-Pyrrolo[2,3-b]pyrazin-7-yl-2-d)thiazol-4-yl)phenyl)-6,7-dihydro-5H-pyrrolo[1,2-a]imidazol-7-ol] | > 0.5 µM | > 0.5 µM |  |  |
| O[C@@]1(c2cccc(-c3csc(-c4c[nH]c5ncncc45)n3)c2)CCn2ccnc21 [Example 20, (R)-7-(3-(2-(7H-Pyrrolo[2,3-d]pyrimidin-5-yl)thiazol-4-yl)phenyl)-6,7-dihydro-5H-pyrrolo[1,2-a]imidazol-7-ol] | ≤ 0.1 µM | ≤ 0.1 µM |  |  |
| O[C@]1(c2cccc(-c3csc(-c4c[nH]c5ncncc45)n3)c2)CCn2ccnc21 [Example 21, (S)-7-(3-(2-(7H-Pyrrolo[2,3-d]pyrimidin-5-yl)thiazol-4-yl)phenyl)-6,7-dihydro-5H-pyrrolo[1,2-a]imidazol-7-ol] | > 0.5 µM | 0.1 to 0.5 µM |  |  |
| O[C@@]1(c2cccc(-c3csc(-c4c[nH]c5ncc(F)cc45)n3)c2)CCn2ccnc21 [Example 24, (R)-7-(3-(2-(5-Fluoro-1H-pyrrolo[2,3-b]pyridin-3-yl)thiazol-4-yl)phenyl)-6,7-dihydro-5H-pyrrolo[1,2-a]imidazol-7-ol] | ≤ 0.1 µM | ≤ 0.1 µM |  |  |
